Among the test systems are A498 renal; DMS 114 small cell lung; DMS 273 small cell lung; HCC-2998 colon; HOP-18 NSCLC; KM20L2 colon; LXFL 529 NSCLC; M19-MEL melanoma; OVCAR-5 ovarian; SK-MEL-5 melanoma; SNB-78 CNS; U251 CNS; DLD-1 colon; RXF-631 renal; XF 498 CNS.
Assay in all cases: inhibition of tumour cell growth, NCI panel, 48 h

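How tested: cells in 96-well plates exposed to compound for 48 hours at five concentrations. TGI: concentration producing complete growth inhibition.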 A value given as a limit tells only on which side of the number the result lay.

On to `Cc1cc2c([nH]c3ccccc32)c2c1OC(C)(C)C1C3CC(C)(C)Oc4c(C)cc5c6ccccc6n(c5c43)C21` (configuration not stated), for which the TGI in the test on A498 renal, with DMS 114 small cell lung, in the test with DMS 273 small cell lung, with HCC-2998 colon, in the test with HOP-18 NSCLC and in the test with KM20L2 colon was more than 100 µM throughout. In addition, the TGI with LXFL 529 NSCLC, with M19-MEL melanoma, in the test on OVCAR-5 ovarian, with SK-MEL-5 melanoma, in the test on SNB-78 CNS and with U251 CNS was more than 100 µM in each case.

Regarding `CC(=O)O[C@H]1C(=O)[C@@]2(C)C(C(OC(=O)c3ccccc3)C3[C@@H](O)C(OC(=O)[C@@H](O)[C@H](NC(=O)c4ccccc4)c4ccc(C(F)(F)F)cc4)C(C)=C1C3(C)C)[C@]1(OC(C)=O)CO[C@@H]1C[C@@H]2O` (some centres not stated), the TGI with DLD-1 colon, in the test on DMS 114 small cell lung, in the test with DMS 273 small cell lung, in the test on HCC-2998 colon, in the test on KM20L2 colon and in the test on LXFL 529 NSCLC was more than 25 µM throughout. Besides, the TGI in the test with M19-MEL melanoma, in the test on OVCAR-5 ovarian, in the test on SK-MEL-5 melanoma, in the test with SNB-78 CNS and in the test with U251 CNS was more than 25 µM throughout.

As for `OCCNCNc1nc(NCNCCO)nc(N(CNCCO)CNCCO)n1`, the TGI in the test on A498 renal is 62 µM; with HCC-2998 colon, 36.4 µM; with OVCAR-5 ovarian it was 21 µM; with SK-MEL-5 melanoma, 28.5 µM; in the test with U251 CNS, 43.7 µM.

For the compound `CC1(C)C2C=CC1C(=O)CC2` (configuration not stated), the TGI in the test with A498 renal, with DLD-1 colon, in the test with DMS 273 small cell lung, with HCC-2998 colon, with HOP-18 NSCLC and with KM20L2 colon was more than 100 µM each time. The TGI in the test with LXFL 529 NSCLC, in the test on OVCAR-5 ovarian, in the test on RXF-631 renal, in the test with SK-MEL-5 melanoma, with SNB-78 CNS and in the test on U251 CNS was more than 100 µM in each case. The same compound showed a TGI in the test on XF 498 CNS of more than 100 µM.

As for `NC(N)=Nc1ccc(CC(N)C(=O)O)cc1` (configuration not stated), the TGI with A498 renal, with HCC-2998 colon, with OVCAR-5 ovarian, in the test on SK-MEL-5 melanoma and with U251 CNS was more than 12.5 µM in each case.

Take `Cn1cc2ccccc2c1-c1nc(F)nc(OCC(=O)[C@H]2CCC3[C@@H]4CCC5=CC(=O)CC[C@]5(C)C4[C@@H](O)C[C@@]32C)n1` (some centres not stated): the TGI in the test on A498 renal was more than 54 µM; in the test with DLD-1 colon, 22.5 µM; with DMS 114 small cell lung it was 22.5 µM; with DMS 273 small cell lung, 36.1 µM; in the test on HCC-2998 colon, 48.4 µM; in the test with HOP-18 NSCLC it was 29.2 µM. Further, the TGI in the test on KM20L2 colon is more than 57 µM; with LXFL 529 NSCLC, 9.59 µM; in the test with M19-MEL melanoma, 14.9 µM; with OVCAR-5 ovarian, more than 73.7 µM; in the test with RXF-631 renal it was 6.82 µM; in the test with SK-MEL-5 melanoma, 44.9 µM. Besides, the TGI in the test on SNB-78 CNS worked out at 47.3 µM; in the test on U251 CNS, 36 µM; with XF 498 CNS, 21.9 µM.

For the compound `CC(=O)OCC1OC(n2c(-c3ccc(C)cc3)cc(-c3ccccc3)c(C#N)c2=S)C(OC(C)=O)C(OC(C)=O)C1OC(C)=O` (configuration not stated), the TGI in the test with A498 renal, in the test with HCC-2998 colon, in the test with OVCAR-5 ovarian, in the test with SK-MEL-5 melanoma and in the test with U251 CNS was more than 100 µM in each case.

As for `CCOC(=O)CCC(NC(=O)c1ccc(OCc2ccc3nc(-c4ccccc4)c(Cl)nc3c2)cc1)C(=O)OCC` (configuration not stated), the TGI with A498 renal is 77.4 µM; with HCC-2998 colon it was more than 31.6 µM; with OVCAR-5 ovarian, more than 31.6 µM; in the test with SK-MEL-5 melanoma, more than 31.6 µM; in the test with U251 CNS it was more than 31.6 µM.

Regarding `CO/N=C(\C)c1cccc(Nc2c3ccccc3nc3occc23)c1`, the TGI with A498 renal was determined as 38.9 µM; with HCC-2998 colon, 20.4 µM; in the test on OVCAR-5 ovarian, 46.8 µM; in the test on SK-MEL-5 melanoma it was 19.1 µM; in the test with U251 CNS, 38.6 µM.

Consider `CCOC(=O)c1ccc(N=c2sc3ccccc3nc2Nc2ccc(C(=O)OCC)cc2)cc1`, for which the TGI in the test with A498 renal, in the test with HCC-2998 colon, with OVCAR-5 ovarian, with SK-MEL-5 melanoma and with U251 CNS was more than 100 µM in each case.

For the compound `CCOC(=O)NC(Nc1ccc(C(=O)OCC)cc1)(C(F)(F)F)C(F)(F)F`, the TGI in the test on A498 renal, with HCC-2998 colon, in the test with OVCAR-5 ovarian, in the test on SK-MEL-5 melanoma and in the test with U251 CNS was more than 100 µM in each case.

As for `CCOC(=O)C(SCCO)C(C(=O)OCC)n1ccc(=O)[nH]c1=O` (configuration not stated), the TGI was more than 100 µM with A498 renal; more than 100 µM in the test with HCC-2998 colon; 47.6 µM in the test with OVCAR-5 ovarian; more than 100 µM with SK-MEL-5 melanoma; 82.9 µM with U251 CNS.

For the compound `CCN(CC)C(=O)C(C)n1cc(C)c(=O)[nH]c1=O` (configuration not stated), the TGI with DMS 114 small cell lung, with DMS 273 small cell lung, with HCC-2998 colon, with KM20L2 colon, in the test on LXFL 529 NSCLC and in the test on M19-MEL melanoma was more than 100 µM throughout. The TGI in the test with OVCAR-5 ovarian, in the test on SK-MEL-5 melanoma, in the test on SNB-78 CNS, in the test with U251 CNS and in the test on XF 498 CNS was more than 100 µM in each case.

On to `CC(C)NC(=O)CN1CCN(c2c(O)c3c(c(O)c2Cl)C(=O)C=CC3=O)CC1`, for which the TGI was 7.29 µM in the test on A498 renal; 10 µM with HCC-2998 colon; 6.54 µM in the test on OVCAR-5 ovarian; 3.45 µM in the test with SK-MEL-5 melanoma; 10.3 µM with U251 CNS.

Consider `Nc1onc2c1Cc1c(noc1N)-c1ccccc1-2`, for which the TGI was 72.2 µM in the test with A498 renal; more than 100 µM with HCC-2998 colon; more than 100 µM in the test with OVCAR-5 ovarian; more than 100 µM in the test with SK-MEL-5 melanoma; more than 100 µM with U251 CNS.
